How the values were obtained:
sEH [1] = conditions: cited from earlier work; for inhibition mode: sEH
[2] = design: method as in PMID 23020295; conditions: cited from earlier work
[3] = test system: mice with angiotensin-II-induced hypertension; design: method as in PMID 15699457; conditions: cited from earlier work
[4] = test system: NO production by poly(I:C)-induced RAW264.7 cells; test: Nitric oxide assay (Griess method); format: cell-based; conditions: for NO production: 10 µM compound, induced control 19.0 ± 1.5 µM, unstimulated ~0.91 µM; for inhibition at 10 µM: Mus musculus, RAW264.7, poly(I:C)-stimulated cells
Description: The activity of compounds 1–5 with respect to NO production by poly(I:C)-induced RAW264.7 cells was evaluated by measuring the amount of nitrite that accumulated in the culture medium using the Griess method. When tested at a concentration 10 µM, none of the compounds affected the viability of RAW264.7 cells. In unstimulated RAW264.7 cells, NO production was ~ 0.91 µM, whereas in poly(I:C)-induced cells, it was 19.0 ± 1.5 µM. In induced cells simultaneously treated with compounds 1–5 at a concentration of 10 µM, NO production was 12.5 ± 0.1, 9.6 ± 0.2, 4.0 ± 0.2, 7.0 ± 0.3, and 13.9 ± 0.8 µM, respectively (Figure 5).
RAW264.7 macrophages were initially cultured as described above and then pretreated for 2 h with 10 µM of the candidate inhibitor. Then, they were stimulated with 1 µg LPS /mL for 24 h. Then, 100 µL each of supernatant and Griess reagent were added to the plate. The absorbance at 450 nm was measured as described.

sEH [5] = biological target: T1, sEH (Homo sapiens, UniProt P34913); test: sEH activity assay (PHOME fluorescence); format: biochemical; conditions: triplicate, six concentrations
T1 construct: purchased Cayman Chemical 10011669
T1 sequence (P34913 1-555): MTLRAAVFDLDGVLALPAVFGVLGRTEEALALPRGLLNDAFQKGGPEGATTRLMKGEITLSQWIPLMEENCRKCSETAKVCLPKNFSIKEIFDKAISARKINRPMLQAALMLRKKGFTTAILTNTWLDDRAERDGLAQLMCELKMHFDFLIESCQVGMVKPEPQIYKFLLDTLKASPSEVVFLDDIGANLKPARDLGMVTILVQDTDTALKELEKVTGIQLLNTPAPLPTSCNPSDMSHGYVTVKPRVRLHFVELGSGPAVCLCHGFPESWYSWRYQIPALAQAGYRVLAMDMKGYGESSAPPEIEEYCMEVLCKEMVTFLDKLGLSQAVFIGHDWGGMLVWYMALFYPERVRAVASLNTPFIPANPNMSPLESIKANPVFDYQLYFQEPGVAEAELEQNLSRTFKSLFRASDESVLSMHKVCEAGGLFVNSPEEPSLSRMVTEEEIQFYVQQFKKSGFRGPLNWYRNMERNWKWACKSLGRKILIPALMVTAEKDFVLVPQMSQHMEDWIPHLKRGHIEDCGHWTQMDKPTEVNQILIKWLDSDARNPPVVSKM
Description: ^1H (400 MHz) and ^13C (100 MHz) nuclear magnetic resonance (NMR) spectra were obtained using a Bruker DRX-400 spectrometer (Bruker, Billerica, MA, USA) with tetramethylsilane as the internal standard. Thin-layer chromatography (TLC) was performed on pre-coated silica gel 60 F254 (0.25 mm; Merck, Rahway, NJ, USA) and reversed-phase-18 F254s plates (0.25 mm; Merck). Column chromatography was performed using a silica gel (60 A, 70–230, or 230–400 mesh ASTM; Merck, Germany) and reversed-phase silica gel (ODS-A, S-75 μm; YMC, Kyoto, Japan). […] Greiss reagent and lipopolysaccharide (LPS) were purchased from Sigma-Aldrich (St. Louis, MO, USA). Dulbecco’s modified Eagle medium (DMEM) and fetal bovine serum were purchased from Gibco (Grand Island, NY, USA). Penicillin/streptomycin antibiotics came from Invitrogen (Carlsbad, CA, USA).
Inhibitor efficiency (%) was calculated as shown in Equation (1):Inhibitory activity = 100 − [(I4_0 − I0)/(M40 − M0)] × 100(1) where I40 and M40 are the fluorescence of the candidate inhibitor (I) and methanol (M) after 40 min, and I0 and M0 are the fluorescence of I and M at 0 min, respectively.

sEH [6] = biological target: T1, sEH; test: sEH enzyme kinetics (Lineweaver–Burk and Dixon plots); format: biochemical; conditions: for Ki: calculated from the Dixon plot; for Binding Mode: substrate 3.1–50 µM, Lineweaver–Burk plot
Description: Determinations of enzyme kinetics yield insights into the interactions between inhibitors and enzymes. In such studies, the changes in the initial velocity (v0) of the enzymatic reaction induced by the inhibitor depending on the substrate concentration are monitored. To investigate the effects of the five flavonoids (1–5) on sEH, a substrate concentration of 3.1–50 µM was used. […] The ki values calculated from the Dixon plot were 43.9, 19.8, 17.5, 63.5, and 68.7 µM, respectively (Figure 2G–K).
In 96-well plates, 20 µL of isolated compounds […] in methanol was mixed with 100 µL of 25 mM Tris–HCl (pH 7.0) buffer containing 0.1% BSA, followed by adding 30 µL of 1.0 µg/mL sEH and then 50 µL of 40 μM PHOME. The reaction product was measured using a fluorescent photometer (excitation filter: 330 nm, emission filter: 465 nm).

[7] = test system: LPS-activated THP-1 cells; design: method as in PMID 27177082; conditions: cited from earlier work
arthritic rats = test system: arthritic rats; design: method as in PMID 27177082; conditions: cited from earlier work

| SMILES | NO production [4] [µM] | IC50 (sEH [5]) [µM] | Ki (sEH [6]) [µM] | Binding Mode (sEH [6]) | further results |
| --- | --- | --- | --- | --- | --- |
| O=c1c(O)c(-c2ccc(O)c(O)c2)oc2cc(O)cc(O)c12 [quercetin] |  |  |  |  | sEH inhibition (in words) (sEH [1]): potent sEH inhibitors |
| O=C(O)CCCCCCCCCCCNC(=O)NC12CC3CC(CC(C3)C1)C2 [AUDA, 12-(3-adamantan-1-yl-ureido) dodecanoic acid] |  |  |  |  | metabolism in vivo [2]: rapid metabolism in vivo; blood pressure [3]: effective for lowering blood pressure |
| COc1cc(-c2oc3cc(O[C@@H]4O[C@H](CO)[C@@H](O)[C@H](O)[C@H]4O)cc(O)c3c(=O)c2O)ccc1O [isorhamnetin-7-O-glucopyranoside] |  |  |  |  | inhibition mode (sEH [1]): non-competitive |
| O=c1c(O)c(-c2ccc(O)cc2)oc2cc(O)cc(O)c12 [kaempferol] |  |  |  |  | sEH inhibition (in words) (sEH [1]): potent sEH inhibitors |
| COc1c(O)cc2oc(-c3ccc(O)c(O)c3)cc(=O)c2c1O [Compound 4, nepetin] | 7.0 ± 0.3 | 40.9 ± 0.6 | 63.5 | non-competitive | inhibition at 10 µM [4]: > 50%; Binding Mode (sEH [6]; listed as nepetin): noncompetitive |
| COc1ccc(-c2oc3cc(OC)c(OC)c(O)c3c(=O)c2O)cc1O [Compound 1, eupatin] | 12.5 ± 0.1 | 42.6 ± 0.8 | 43.9 | non-competitive | Binding Mode (sEH [6]; listed as eupatin): noncompetitive |
| C=C(C)[C@@H](O)[C@@H](O)C[C@@H](C)C1=C2CC[C@H]3[C@@]4(C)CCC(=O)C(C)(C)[C@@H]4CC[C@]3(C)[C@@]2(C)CC1 [11-deoxy-25-anhydroalisol E] |  |  |  |  | sEH inhibition (in words) (sEH [1]): considerable inhibitory effects on sEH |
| COc1c(O)cc2oc(-c3ccc(O)cc3)cc(=O)c2c1O [Compound 2, hispidulin] | 9.6 ± 0.2 | 22.2 ± 0.3 | 19.8 | non-competitive | Binding Mode (sEH [6]; listed as hispidulin): noncompetitive |
| COc1cc(-c2cc(=O)c3c(O)cc(O)cc3o2)ccc1O [chrysoeriol] |  |  |  |  | inhibition mode (sEH [1]): non-competitive |
| COc1cc(-c2oc3cc(O)cc(O)c3c(=O)c2OC2OC(CO)C(O)C(O)C2O)ccc1O (stereo not shown) [Compound 5, isorhametin-3-O-glucoside] | 13.9 ± 0.8 | 62.8 ± 1.8 | 68.7 | non-competitive | Binding Mode (sEH [6]; listed as isorhametin-3-O-glucoside): noncompetitive |
| COc1c(O)cc2oc(-c3ccc(O)c(O)c3)c(O)c(=O)c2c1O [Compound 3, patuletin] | 4.0 ± 0.2 | 12.1 ± 0.1 | 17.5 | non-competitive | inhibition at 10 µM [4]: > 50%; TNF-α and IL-1β levels [7]: decrease TNF-α and IL-1β levels; TNF-α and IL-1β levels (arthritic rats): decrease TNF-α and IL-1β levels; Binding Mode (sEH [6]; listed as patuletin): noncompetitive |
| O=c1cc(-c2ccc(O)c(O)c2)oc2cc(O[C@@H]3O[C@H](CO)[C@@H](O)[C@H](O)[C@H]3O)cc(O)c12 [luteolin-7-O-glucopyranoside] |  |  |  |  | inhibition mode (sEH [1]): non-competitive |
